Data published in patent US11053204B2, “Pyrimidinyloxy benzene derivatives as herbicides” (FMC Corporation, priority 2015, dated 2021).

Columns and labels:
Format in all cases: in vivo
[1] = tested on: Italian ryegrass (Lolium multiflorum); assay: Test A preemergence, visual injury rating; settings: 0 to 100 scale (0 no effect, 100 complete control); for Plant response rating, Ryegrass, Italian: 125 g ai/ha; for Ryegrass, Italian plant response rating: 500 g ai/ha
Method in brief: (§1)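 Injury scores run from 0, no effect, to 100, complete control, judged by eye against untreated plants roughly 10 days after treatment. Chemicals carried a surfactant in a non-phytotoxic solvent and went onto loam–sand soil preemergence or onto one- to two-leaf seedlings postemergence.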

[2] = tested on: barnyardgrass (Echinochloa crus-galli); assay: Test A preemergence, visual injury rating; settings: 0 to 100 scale (0 no effect, 100 complete control); for Plant response rating, Barnyardgrass: 125 g ai/ha; for Barnyardgrass plant response rating: 500 g ai/ha
Method in brief: as §1

[3] = tested on: giant foxtail (Setaria faberii); assay: Test A preemergence, visual injury rating; settings: 0 to 100 scale (0 no effect, 100 complete control); for Plant response rating, Foxtail, Giant: 125 g ai/ha; for Foxtail, Giant plant response rating: 500 g ai/ha
Method in brief: as §1

kochia (Kochia scoparia) [4] = assay: Test A preemergence, visual injury rating; settings: 0 to 100 scale (0 no effect, 100 complete control); for Plant response rating, Kochia: 125 g ai/ha; for Kochia plant response rating: 500 g ai/ha
Method in brief: as §1

[5] = tested on: pigweed (Amaranthus retroflexus); assay: Test A preemergence, visual injury rating; settings: 0 to 100 scale (0 no effect, 100 complete control); for Plant response rating, Pigweed: 125 g ai/ha; for Pigweed plant response rating: 500 g ai/ha
Method in brief: as §1

[6] = tested on: ragweed (common ragweed, Ambrosia elatior); assay: Test A preemergence, visual injury rating; settings: 0 to 100 scale (0 no effect, 100 complete control); for Plant response rating, Ragweed: 125 g ai/ha; for Ragweed plant response rating: 500 g ai/ha
Method in brief: as §1

[7] = tested on: chickweed (common chickweed, Stellaria media); assay: Test C postemergence, plant response rating; settings: for Chickweed plant response rating: scale 0 to 100 (0 no effect, 100 complete control)
Method in brief: (§2)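 Visual injury score, 0 = no effect, 100 = complete control, assigned against untreated controls after 13 to 15 d in the greenhouse. Compounds were applied in a surfactant-containing non-phytotoxic solvent mix, preemergence to seeded loam/sand or silt loam soil, or postemergence to 1- to 4-leaf plants (2 to 18 cm).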

corn (Zea mays) = assay: Test C postemergence, plant response rating; settings: for Corn plant response rating: scale 0 to 100 (0 no effect, 100 complete control)
Method in brief: as §2

[8] = tested on: crabgrass, large (large crabgrass, Digitaria sanguinalis); assay: Test C postemergence, plant response rating; settings: for Crabgrass, Large plant response rating: scale 0 to 100 (0 no effect, 100 complete control)
Method in brief: as §2

[9] = tested on: galium (catchweed bedstraw, Galium aparine); assay: Test C postemergence, plant response rating; settings: for Galium plant response rating: scale 0 to 100 (0 no effect, 100 complete control)
Method in brief: as §2

kochia (Kochia scoparia) [10] = assay: Test C postemergence, plant response rating; settings: for Kochia plant response rating: scale 0 to 100 (0 no effect, 100 complete control)
Method in brief: as §2

[11] = tested on: lambsquarters (Chenopodium album); assay: Test C postemergence, plant response rating; settings: for Lambsquarters plant response rating: scale 0 to 100 (0 no effect, 100 complete control)
Method in brief: as §2

[12] = tested on: nutsedge, yellow (yellow nutsedge, Cyperus esculentus); assay: Test C postemergence, plant response rating; settings: for Nutsedge, Yellow plant response rating: scale 0 to 100 (0 no effect, 100 complete control)
Method in brief: as §2

[13] = tested on: oat, wild (wild oat Avena fatua); assay: Test C postemergence, plant response rating; settings: for Oat, Wild plant response rating: scale 0 to 100 (0 no effect, 100 complete control)
Method in brief: as §2

[14] = tested on: ragweed (common ragweed, Ambrosia elatior); assay: Test C postemergence, plant response rating; settings: for Ragweed plant response rating: scale 0 to 100 (0 no effect, 100 complete control)
Method in brief: as §2

[15] = tested on: ryegrass, Italian (Italian ryegrass, Lolium multiflorum); assay: Test C postemergence, plant response rating; settings: for Ryegrass, Italian plant response rating: scale 0 to 100 (0 no effect, 100 complete control)
Method in brief: as §2

soybean (Glycine max) = assay: Test C postemergence, plant response rating; settings: for Soybean plant response rating: scale 0 to 100 (0 no effect, 100 complete control)
Method in brief: as §2

[16] = tested on: waterhemp (common waterhemp, Amaranthus rudis); assay: Test C postemergence, plant response rating; settings: for Waterhemp plant response rating: 125 g ai/ha, scale 0 to 100 (0 no effect, 100 complete control)
Method in brief: as §2

O=C(CCCC(F)(F)F)c1c(Oc2ncc(Cl)cn2)cccc1C(F)(F)F [Compound 125]
Plant response rating, Ryegrass, Italian [1]: 70 | Ryegrass, Italian plant response rating [1]: 100 | Plant response rating, Barnyardgrass [2]: 100 | Barnyardgrass plant response rating [2]: 100 | Plant response rating, Foxtail, Giant [3]: 100 | Foxtail, Giant plant response rating [3]: 100 | Plant response rating, Kochia (kochia (Kochia scoparia) [4]): 100 | Kochia plant response rating (kochia (Kochia scoparia) [4]): 100 | Plant response rating, Pigweed [5]: 100 | Pigweed plant response rating [5]: 100 | Plant response rating, Ragweed [6]: 20 | Ragweed plant response rating [6]: 40 | Plant response rating, Chickweed ([7]; 16 g ai/ha, scale of 0 to 100): 70 | Plant response rating, Chickweed ([7]; 31 g ai/ha, scale 0 to 100): 75 | Chickweed plant response rating ([7]; 62 g ai/ha): 90 | Chickweed plant response rating ([7]; 125 g ai/ha): 98 | Plant response rating, Corn (corn (Zea mays); 16 g ai/ha, scale of 0 to 100): 10 | Plant response rating, Corn (corn (Zea mays); 31 g ai/ha, scale 0 to 100): 10 | Corn plant response rating (corn (Zea mays); 62 g ai/ha): 15 | Corn plant response rating (corn (Zea mays); 125 g ai/ha): 20 | Plant response rating, Crabgrass, Large ([8]; 16 g ai/ha, scale of 0 to 100): 10 | Plant response rating, Crabgrass, Large ([8]; 31 g ai/ha, scale 0 to 100): 10 | Crabgrass, Large plant response rating ([8]; 62 g ai/ha): 15 | Crabgrass, Large plant response rating ([8]; 125 g ai/ha): 20 | Plant response rating, Galium ([9]; 16 g ai/ha, scale of 0 to 100): 65 | Plant response rating, Galium ([9]; 31 g ai/ha, scale 0 to 100): 70 | Galium plant response rating ([9]; 62 g ai/ha): 80 | Galium plant response rating ([9]; 125 g ai/ha): 90 | Plant response rating, Kochia (kochia (Kochia scoparia) [10]; 16 g ai/ha, scale of 0 to 100): 85 | Plant response rating, Kochia (kochia (Kochia scoparia) [10]; 31 g ai/ha, scale 0 to 100): 90 | Kochia plant response rating (kochia (Kochia scoparia) [10]; 62 g ai/ha): 95 | Kochia plant response rating (kochia (Kochia scoparia) [10]; 125 g ai/ha): 98 | Plant response rating, Lambsquarters ([11]; 16 g ai/ha, scale of 0 to 100): 70 | Plant response rating, Lambsquarters ([11]; 31 g ai/ha, scale 0 to 100): 98 | Lambsquarters plant response rating ([11]; 62 g ai/ha): 95 | Lambsquarters plant response rating ([11]; 125 g ai/ha): 100 | Plant response rating, Nutsedge, Yellow ([12]; 16 g ai/ha, scale of 0 to 100): 5 | Plant response rating, Nutsedge, Yellow ([12]; 31 g ai/ha, scale 0 to 100): 5 | Nutsedge, Yellow plant response rating ([12]; 62 g ai/ha): 5 | Nutsedge, Yellow plant response rating ([12]; 125 g ai/ha): 10 | Plant response rating, Oat, Wild ([13]; 16 g ai/ha, scale of 0 to 100): 5 | Plant response rating, Oat, Wild ([13]; 31 g ai/ha, scale 0 to 100): 10 | Oat, Wild plant response rating ([13]; 62 g ai/ha): 15 | Oat, Wild plant response rating ([13]; 125 g ai/ha): 15 | Plant response rating, Ragweed ([14]; 16 g ai/ha, scale of 0 to 100): 5 | Plant response rating, Ragweed ([14]; 31 g ai/ha, scale 0 to 100): 35 | Ragweed plant response rating ([14]; 62 g ai/ha): 45 | Ragweed plant response rating ([14]; 125 g ai/ha): 55 | Plant response rating, Ryegrass, Italian ([15]; 16 g ai/ha, scale of 0 to 100): 5 | Plant response rating, Ryegrass, Italian ([15]; 31 g ai/ha, scale 0 to 100): 5 | Ryegrass, Italian plant response rating ([15]; 62 g ai/ha): 10 | Ryegrass, Italian plant response rating ([15]; 125 g ai/ha): 15 | Plant response rating, Soybean (soybean (Glycine max); 16 g ai/ha, scale of 0 to 100): 25 | Plant response rating, Soybean (soybean (Glycine max); 31 g ai/ha, scale 0 to 100): 60 | Soybean plant response rating (soybean (Glycine max); 62 g ai/ha): 65 | Soybean plant response rating (soybean (Glycine max); 125 g ai/ha): 70 | Plant response rating, Waterhemp ([16]; 16 g ai/ha, scale of 0 to 100): 75 | Plant response rating, Waterhemp ([16]; 31 g ai/ha, scale 0 to 100): 80 | Waterhemp plant response rating [16]: 90

CCCCC(=O)c1c(Oc2ncc(Cl)cn2)cccc1C(F)(F)F [Compound 130]
Plant response rating, Ryegrass, Italian [1]: 80 | Ryegrass, Italian plant response rating [1]: 100 | Plant response rating, Barnyardgrass [2]: 100 | Barnyardgrass plant response rating [2]: 100 | Plant response rating, Foxtail, Giant [3]: 100 | Foxtail, Giant plant response rating [3]: 100 | Plant response rating, Kochia (kochia (Kochia scoparia) [4]): 100 | Kochia plant response rating (kochia (Kochia scoparia) [4]): 100 | Plant response rating, Pigweed [5]: 100 | Pigweed plant response rating [5]: 100 | Plant response rating, Ragweed [6]: 20 | Ragweed plant response rating [6]: 90 | Plant response rating, Chickweed ([7]; 16 g ai/ha, scale of 0 to 100): 75 | Plant response rating, Chickweed ([7]; 31 g ai/ha, scale 0 to 100): 75 | Chickweed plant response rating ([7]; 62 g ai/ha): 80 | Chickweed plant response rating ([7]; 125 g ai/ha): 90 | Plant response rating, Corn (corn (Zea mays); 16 g ai/ha, scale of 0 to 100): 10 | Plant response rating, Corn (corn (Zea mays); 31 g ai/ha, scale 0 to 100): 20 | Corn plant response rating (corn (Zea mays); 62 g ai/ha): 15 | Corn plant response rating (corn (Zea mays); 125 g ai/ha): 20 | Plant response rating, Crabgrass, Large ([8]; 16 g ai/ha, scale of 0 to 100): 5 | Plant response rating, Crabgrass, Large ([8]; 31 g ai/ha, scale 0 to 100): 10 | Crabgrass, Large plant response rating ([8]; 62 g ai/ha): 10 | Crabgrass, Large plant response rating ([8]; 125 g ai/ha): 20 | Plant response rating, Galium ([9]; 16 g ai/ha, scale of 0 to 100): 75 | Plant response rating, Galium ([9]; 31 g ai/ha, scale 0 to 100): 80 | Galium plant response rating ([9]; 62 g ai/ha): 85 | Galium plant response rating ([9]; 125 g ai/ha): 80 | Plant response rating, Kochia (kochia (Kochia scoparia) [10]; 16 g ai/ha, scale of 0 to 100): 80 | Plant response rating, Kochia (kochia (Kochia scoparia) [10]; 31 g ai/ha, scale 0 to 100): 85 | Kochia plant response rating (kochia (Kochia scoparia) [10]; 62 g ai/ha): 95 | Kochia plant response rating (kochia (Kochia scoparia) [10]; 125 g ai/ha): 98 | Plant response rating, Lambsquarters ([11]; 16 g ai/ha, scale of 0 to 100): 75 | Plant response rating, Lambsquarters ([11]; 31 g ai/ha, scale 0 to 100): 90 | Lambsquarters plant response rating ([11]; 62 g ai/ha): 85 | Lambsquarters plant response rating ([11]; 125 g ai/ha): 95 | Plant response rating, Nutsedge, Yellow ([12]; 16 g ai/ha, scale of 0 to 100): 0 | Plant response rating, Nutsedge, Yellow ([12]; 31 g ai/ha, scale 0 to 100): 0 | Nutsedge, Yellow plant response rating ([12]; 62 g ai/ha): 5 | Nutsedge, Yellow plant response rating ([12]; 125 g ai/ha): 5 | Plant response rating, Oat, Wild ([13]; 16 g ai/ha, scale of 0 to 100): 5 | Plant response rating, Oat, Wild ([13]; 31 g ai/ha, scale 0 to 100): 10 | Oat, Wild plant response rating ([13]; 62 g ai/ha): 15 | Oat, Wild plant response rating ([13]; 125 g ai/ha): 15 | Plant response rating, Ragweed ([14]; 16 g ai/ha, scale of 0 to 100): 25 | Plant response rating, Ragweed ([14]; 31 g ai/ha, scale 0 to 100): 45 | Ragweed plant response rating ([14]; 62 g ai/ha): 55 | Ragweed plant response rating ([14]; 125 g ai/ha): 50 | Plant response rating, Ryegrass, Italian ([15]; 16 g ai/ha, scale of 0 to 100): 5 | Plant response rating, Ryegrass, Italian ([15]; 31 g ai/ha, scale 0 to 100): 10 | Ryegrass, Italian plant response rating ([15]; 62 g ai/ha): 10 | Ryegrass, Italian plant response rating ([15]; 125 g ai/ha): 15 | Plant response rating, Soybean (soybean (Glycine max); 16 g ai/ha, scale of 0 to 100): 40 | Plant response rating, Soybean (soybean (Glycine max); 31 g ai/ha, scale 0 to 100): 55 | Soybean plant response rating (soybean (Glycine max); 62 g ai/ha): 75 | Soybean plant response rating (soybean (Glycine max); 125 g ai/ha): 95 | Plant response rating, Waterhemp ([16]; 16 g ai/ha, scale of 0 to 100): 65 | Plant response rating, Waterhemp ([16]; 31 g ai/ha, scale 0 to 100): 75 | Waterhemp plant response rating [16]: 85
